Assays:
Mus musculus [1] = assay: Acquisition time in (R)-PIA) induced avoidance test (performed in mice) for antagonistic activity after peroral administration of 0.08 mg/kg (n=15); type: functional; conditions: route oral
Mus musculus [2] = assay: Acquisition time in (R)-PIA) induced avoidance test (performed in mice) for antagonistic activity after peroral administration of 0.31 mg/kg (n=15); type: functional; conditions: route oral
Mus musculus [3] = assay: Acquisition time in (R)-PIA) induced avoidance test (performed in mice) for antagonistic activity after peroral administration of 1.25 mg/kg (n=15); type: functional; conditions: route oral
Mus musculus [4] = assay: Retention time in (R)-PIA) induced avoidance test (performed in mice) for antagonistic activity after peroral administration of 1.25 mg/kg (n=15) (P<0.01); type: functional, organism-based; parameters: dose 1.25 mg/kg
Mus musculus [5] = assay: Retention time in (R)-PIA) induced avoidance test (performed in mice) for antagonistic activity after peroral administration of 5 mg/kg; type: functional, organism-based; parameters: dose 5 mg/kg
Mus musculus [6] = assay: Retention time in (R)-PIA) induced avoidance test (performed in mice) for antagonistic activity after peroral administration of 0.08 mg/kg (n=15) (P<0.01); type: functional, organism-based; parameters: dose 0.08 mg/kg
Mus musculus [7] = assay: Retention time in (R)-PIA) induced avoidance test (performed in mice) for antagonistic activity after peroral administration of 0.31 mg/kg (n=15) (P<0.005); type: functional, organism-based; parameters: dose 0.31 mg/kg
Mus musculus [8] = assay: Tested for locomotor activity after oral administration of 10 mg/kg for 120 min; type: functional
Mus musculus [9] = assay: Tested for locomotor activity after oral administration of 40 mg/kg for 120 min; type: functional
Mus musculus [10] = assay: Tested for locomotor activity after oral administration of 6.25 mg/kg for 120 min; type: functional
Rattus norvegicus [11] = assay: Acquisition time in Scopolamine induced avoidance test (performed in rat) for antagonistic activity after peroral administration of 1.25 mg/kg; type: functional; conditions: route oral
Rattus norvegicus [12] = assay: Acquisition time in Scopolamine induced avoidance test (performed in rat) for antagonistic activity after peroral administration of 5 mg/kg; type: functional; conditions: route oral
Rattus norvegicus [13] = assay: Acquisition time in Scopolamine induced avoidance test (performed in rat) for antagonistic activity after peroral administration of 0.02 mg/kg (n=13); type: functional; conditions: route oral
Rattus norvegicus [14] = assay: Acquisition time in Scopolamine induced avoidance test (performed in rat) for antagonistic activity after peroral administration of 0.08 mg/kg (n=13); type: functional; conditions: route oral
Rattus norvegicus [15] = assay: Acquisition time in Scopolamine induced avoidance test (performed in rat) for antagonistic activity after peroral administration of 0.31 mg/kg (n=13); type: functional; conditions: route oral
Rattus norvegicus [16] = assay: Retention time in Scopolamine induced avoidance test (performed in rat) for antagonistic activity after peroral administration of 0.02 mg/kg (n=13); type: functional, organism-based; parameters: dose 0.02 mg/kg
Rattus norvegicus [17] = assay: Retention time in Scopolamine induced avoidance test (performed in rat) for antagonistic activity after peroral administration of 0.08 mg/kg (n=13) (P<0.01); type: functional, organism-based; parameters: dose 0.08 mg/kg
Rattus norvegicus [18] = assay: Retention time in Scopolamine induced avoidance test (performed in rat) for antagonistic activity after peroral administration of 0.31 mg/kg (n=13) (P<0.005); type: functional, organism-based; parameters: dose 0.31 mg/kg
Rattus norvegicus [19] = assay: Retention time in Scopolamine induced avoidance test (performed in rat) for antagonistic activity after peroral administration of 5 mg/kg; type: functional, organism-based; parameters: dose 5 mg/kg
Mus musculus [20] = assay: Acquisition time in (R)-PIA) induced avoidance test (performed in mice) for antagonistic activity after peroral administration of 5 mg/kg; type: functional; conditions: route oral
Adenosine receptor A1 = molecular target: T1, Adenosine receptor A1 (Cavia porcellus, UniProt P47745); assay: Binding affinity against Adenosine A1 receptor from guinea pig forebrain membranes by N6-[3H]- cyclohexyladenosine displacement.
T1 sequence (P47745 whole entry): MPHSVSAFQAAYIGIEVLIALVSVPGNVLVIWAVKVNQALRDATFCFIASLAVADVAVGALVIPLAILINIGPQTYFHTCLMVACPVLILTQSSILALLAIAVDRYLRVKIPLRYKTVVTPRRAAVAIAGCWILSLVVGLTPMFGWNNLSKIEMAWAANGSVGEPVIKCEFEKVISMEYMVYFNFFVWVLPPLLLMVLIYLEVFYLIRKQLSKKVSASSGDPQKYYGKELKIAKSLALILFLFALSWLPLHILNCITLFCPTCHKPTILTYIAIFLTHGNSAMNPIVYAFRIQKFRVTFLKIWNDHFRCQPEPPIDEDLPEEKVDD

Adenosine A2 receptor = Adenosine A2 receptor (Rattus norvegicus, UniProt P29276+P30543); assay: Binding affinity against Adenosine A2 receptor from rat striatal membranes with N-[3H] ethyladenosin-5'-uronamide
Mus musculus [21] = assay: Acquisition time in (R)-PIA) induced avoidance test (performed in mice) for antagonistic activity after peroral administration of 0.08 mg/kg; type: functional; conditions: route oral
Mus musculus [22] = assay: Acquisition time in (R)-PIA) induced avoidance test (performed in mice) for antagonistic activity after p.o. administration of 0.31 mg/kg; type: functional; conditions: route oral
Mus musculus [23] = assay: Acquisition time in (R)-PIA) induced avoidance test (performed in mice) for antagonistic activity after p.o. administration of 1.25 mg/kg; type: functional; conditions: route oral
Mus musculus [24] = assay: Retention time in (R)-PIA) induced avoidance test (performed in mice) for antagonistic activity after p.o. administration of 1.25 mg/kg; type: functional, organism-based; parameters: dose 1.25 mg/kg
Mus musculus [25] = assay: Retention time in (R)-PIA) induced avoidance test (performed in mice) for antagonistic activity after peroral of 0.31 mg/kg; type: functional, organism-based; parameters: dose 0.31 mg/kg
Mus musculus [26] = assay: Retention time in (R)-PIA) induced avoidance test (performed in mice) for antagonistic activity after peroral administration of 0.08 mg/kg; type: functional, organism-based; parameters: dose 0.08 mg/kg
Rattus norvegicus [27] = assay: Acquisition time in Scopolamine induced avoidance test (performed in rat) for antagonistic activity after peroral administration of 20 mg/kg; type: functional; conditions: route oral
Rattus norvegicus [28] = assay: Acquisition time in Scopolamine induced avoidance test (performed in rat) for antagonistic activity after peroral administration of 0.02 mg/kg; type: functional; conditions: route oral
Rattus norvegicus [29] = assay: Acquisition time in Scopolamine induced avoidance test (performed in rat) for antagonistic activity after p.o. administration of 0.08 mg/kg; type: functional; conditions: route oral
Rattus norvegicus [30] = assay: Acquisition time in Scopolamine induced avoidance test (performed in rat) for antagonistic activity after p.o. administration of 0.31 mg/kg; type: functional; conditions: route oral
Rattus norvegicus [31] = assay: Acquisition time in Scopolamine induced avoidance test (performed in rat) for antagonistic activity after p.o. administration of 5 mg/kg; type: functional; conditions: route oral
Rattus norvegicus [32] = assay: Retention time in Scopolamine induced avoidance test (performed in […]) for antagonistic activity after peroral administration of 5 mg/kg; type: functional, organism-based; parameters: dose 5 mg/kg
Rattus norvegicus [33] = assay: Retention time in Scopolamine induced avoidance test (performed in rat) for antagonistic activity after peroral administration of 0.02 mg/kg; type: functional, organism-based; parameters: dose 0.02 mg/kg
Rattus norvegicus [34] = assay: Retention time in Scopolamine induced avoidance test (performed in rat) for antagonistic activity after p.o. administration of 0.08 mg/kg; type: functional, organism-based; parameters: dose 0.08 mg/kg
Rattus norvegicus [35] = assay: Retention time in Scopolamine induced avoidance test (performed in rat) for antagonistic activity after p.o. administration of 0.31 mg/kg; type: functional, organism-based; parameters: dose 0.31 mg/kg
Rattus norvegicus [36] = assay: Retention time in Scopolamine induced avoidance test (performed in rat) for antagonistic activity after peroral administration of 1.25 mg/kg; type: functional, organism-based; parameters: dose 1.25 mg/kg
Rattus norvegicus [37] = assay: Retention time in Scopolamine induced avoidance test (performed in rat) for antagonistic activity after peroral administration of 20 mg/kg; type: functional, organism-based; parameters: dose 20 mg/kg
Rattus norvegicus [38] = assay: Acquisition time in Scopolamine induced avoidance test (performed in rat) for antagonistic activity after peroral administration of 0.31 mg/kg (n=15); type: functional; conditions: route oral
Rattus norvegicus [39] = assay: Retention time in Scopolamine induced avoidance test (performed in rat) for antagonistic activity after peroral administration of 0.31 mg/kg (n=15); type: functional, organism-based; parameters: dose 0.31 mg/kg
Rattus norvegicus [40] = assay: Retention time in Scopolamine induced avoidance test (performed in rat) for antagonistic activity after peroral administration of 20 mg/kg (n=14); type: functional, organism-based; parameters: dose 20 mg/kg
Rattus norvegicus [41] = assay: Acquisition time in Scopolamine induced avoidance test (performed in rat) for antagonistic activity after peroral administration of 0.02 mg/kg; conditions: route oral

| SMILES | Acquisition time (Mus musculus [2]) [s] | Retention time (Mus musculus [5]) [s] | Retention time (Mus musculus [7]) [s] | Acquisition time (Rattus norvegicus [11]) [s] | Acquisition time (Mus musculus [20]) [s] | Acquisition time (Mus musculus [21]) [s] | Acquisition time (Mus musculus [23]) [s] | Retention time (Mus musculus [24]) [s] | Retention time (Mus musculus [26]) [s] | Acquisition time (Rattus norvegicus [27]) [s] | Acquisition time (Rattus norvegicus [29]) [s] | Acquisition time (Rattus norvegicus [31]) [s] | Retention time (Rattus norvegicus [32]) [s] | Retention time (Rattus norvegicus [33]) [s] | Retention time (Rattus norvegicus [34]) [s] | Retention time (Rattus norvegicus [36]) [s] | other results |
| --- | --- | --- | --- | --- | --- | --- | --- | --- | --- | --- | --- | --- | --- | --- | --- | --- | --- |
| CCCn1c(=O)c2[nH]c(C3CCCC3)nc2n(CCC)c1=O [1,3-DIPROPYL-8-CYCLOPENTYLXANTHINE [DPCPX]] | 19.1 | 433 | 456 | 12.4 | 18.4 | – | – | – | – | – | – | – | – | – | – | – | Acquisition time (Mus musculus [1]): 19.4 s; Acquisition time (Mus musculus [3]): 20.5 s; Retention time (Mus musculus [4]): 272 s; Retention time (Mus musculus [6]): 190 s; Locomotor activity (Mus musculus [8]): 4679 Counts; Locomotor activity (Mus musculus [9]): 5257 Counts; Locomotor activity (Mus musculus [10]): 3826 Counts; Acquisition time (Rattus norvegicus [12]): 14.6 s; Acquisition time (Rattus norvegicus [13]): 19.8 s; Acquisition time (Rattus norvegicus [14]): 21.5 s; Acquisition time (Rattus norvegicus [15]): 24.7 s; Retention time (Rattus norvegicus [16]): 32 s; Retention time (Rattus norvegicus [17]): 105 s; Retention time (Rattus norvegicus [18]): 273 s; Retention time (Rattus norvegicus [19]): 68.7 s |
| CCCn1c(=O)c2[nH]c(C3CCCC3)nc2n(CCC)c1=S | – | 104 | – | 9.9 | 26.9 | 24.7 | 12.3 | 52.7 | 48.1 | 6.7 | 9.4 | 8.5 | 21.6 | 19 | 75.3 | 56.4 | Ki (Adenosine receptor A1): 6.6 nM; Ki (Adenosine A2 receptor): > 10000 nM; Acquisition time (Mus musculus [22]): 32.7 s; Retention time (Mus musculus [25]): 121 s; Acquisition time (Rattus norvegicus [28]): 8.9 s; Acquisition time (Rattus norvegicus [30]): 8.9 s; Retention time (Rattus norvegicus [35]): 25.8 s; Retention time (Rattus norvegicus [37]): 52.4 s |
| CC(C)Cn1c(=O)n(C)c(=O)c2[nH]c(C(C3CC3)C3CC3)nc21 | 26.4 | 359 | 370 | 11.8 | 12.5 | 25.7 | 19.9 | 349 | 171 | 9.6 | 7.1 | 11.5 | 9.9 | 17.6 | 17.6 | 22.8 | Acquisition time (Rattus norvegicus [38]): 8.3 s; Retention time (Rattus norvegicus [39]): 50.9 s; Retention time (Rattus norvegicus [40]): 14.1 s; Acquisition time (Rattus norvegicus [41]): 10.1 s |

Source: ChEMBL document CHEMBL1126778, “Adenosine A1 antagonists. 3. Structure-activity relationships on amelioration against scopolamine- or N6-((R)-phenylisopropyl)adenosine-induced cognitive disturbance” (J Med Chem, 1993)
